Test results from ChEMBL document CHEMBL3886786, “1,3 substituted azetidine PDE10 inhibitors” (2016).

Target: cAMP and cAMP-inhibited cGMP 3',5'-cyclic phosphodiesterase 10A (Homo sapiens, UniProt Q9Y233)
Test: Fluorescence Polarization Assay: The fluorescence polarization assay for cyclic nucleotide phosphodiesterases was performed using an IMAP® FP kit supplied by Molecular Devices, Sunnyvale, Calif. (product # R8139). IMAP® technology has been applied previously to phosphodiesterase assays (Huang, W., et al., J. Biomol Screen, 2002, 7: 215). Assays were performed at room temperature in 384-well microtiter plates with an incubation volume of 20.2 μL. Solutions of test compounds were prepared in DMSO and serially diluted with DMSO to yield 8 μL of each of 10 solutions differing by 3-fold in concentration, at 32 serial dilutions per plate. 100% inhibition is determined using a known PDE10 inhibitor, which can be any compound that is present at 5,000 times its Ki value in the assay described as follows, such as papaverine (see Siuciak, et al. Neuropharmacology (2006) 51:386-396; Becker, et al. Behav Brain Res (2008) 186(2):155-60; Threlfell, et al., J Pharmacol Exp Ther (2009) 328(3):785-795), 2-{4-[pyridin-4-yl-1-(2,2,2-trifluoroethyl)-1H-pyrazol-3-yl]phenoxymethyl}quinoline succinic acid or 2-[4-(1-methyl-4-pyridin-4-yl-1H-pyrazol-3-yl)-phenoxymethyl]quinoline succinic acid (see Schmidt, et al. J Pharmacol Exp Ther (2008) 325:681-690; Threlfell, et al., J Pharmacol Exp Ther (2009) 328(3): 785-795). 0% of inhibition is determined by using DMSO (1% final concentrations). […]

Sequence of cAMP and cAMP-inhibited cGMP 3',5'-cyclic phosphodiesterase 10A (Q9Y233 whole entry): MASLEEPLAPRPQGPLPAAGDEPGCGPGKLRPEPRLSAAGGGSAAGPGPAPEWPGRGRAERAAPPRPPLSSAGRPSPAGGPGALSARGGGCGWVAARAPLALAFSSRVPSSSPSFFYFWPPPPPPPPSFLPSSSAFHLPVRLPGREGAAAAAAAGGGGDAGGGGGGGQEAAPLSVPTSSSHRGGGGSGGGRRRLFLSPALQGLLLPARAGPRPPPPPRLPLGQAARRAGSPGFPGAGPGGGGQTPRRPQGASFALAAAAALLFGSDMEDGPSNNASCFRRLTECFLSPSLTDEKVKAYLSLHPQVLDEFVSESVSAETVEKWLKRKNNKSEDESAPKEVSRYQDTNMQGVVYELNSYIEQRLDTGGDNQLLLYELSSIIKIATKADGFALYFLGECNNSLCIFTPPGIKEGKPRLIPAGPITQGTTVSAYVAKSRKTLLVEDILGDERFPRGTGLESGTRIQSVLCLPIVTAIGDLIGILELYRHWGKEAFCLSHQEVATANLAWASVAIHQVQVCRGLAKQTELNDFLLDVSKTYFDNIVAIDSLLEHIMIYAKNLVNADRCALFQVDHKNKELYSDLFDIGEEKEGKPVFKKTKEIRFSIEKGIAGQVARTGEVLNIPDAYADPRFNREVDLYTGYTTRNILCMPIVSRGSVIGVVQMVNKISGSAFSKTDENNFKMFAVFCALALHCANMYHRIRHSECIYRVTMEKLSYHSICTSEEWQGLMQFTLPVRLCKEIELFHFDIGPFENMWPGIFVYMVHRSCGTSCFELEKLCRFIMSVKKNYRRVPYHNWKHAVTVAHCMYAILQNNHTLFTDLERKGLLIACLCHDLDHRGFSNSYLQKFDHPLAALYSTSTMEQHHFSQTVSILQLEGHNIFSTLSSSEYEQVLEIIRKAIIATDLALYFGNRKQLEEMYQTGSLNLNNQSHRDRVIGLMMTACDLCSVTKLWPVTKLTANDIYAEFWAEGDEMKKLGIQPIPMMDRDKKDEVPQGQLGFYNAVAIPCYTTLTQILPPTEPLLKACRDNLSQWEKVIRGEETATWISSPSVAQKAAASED

Cc1nc(N2CC(c3nc4ccccc4n3C)C2)cc(-n2nc(C)nc2C2CCOCC2)n1
Ki: 2.2 nM
